Literature values, collected in publication PMC5812370 (Biochemistry, 2017).

Key:
[1] = biological target: uPAR·uPA protein–protein interaction (Homo sapiens, UniProt Q03405)
uPAR = uPAR (Homo sapiens, UniProt Q03405)
Chain of uPAR (Q03405 23-305 limits assumed): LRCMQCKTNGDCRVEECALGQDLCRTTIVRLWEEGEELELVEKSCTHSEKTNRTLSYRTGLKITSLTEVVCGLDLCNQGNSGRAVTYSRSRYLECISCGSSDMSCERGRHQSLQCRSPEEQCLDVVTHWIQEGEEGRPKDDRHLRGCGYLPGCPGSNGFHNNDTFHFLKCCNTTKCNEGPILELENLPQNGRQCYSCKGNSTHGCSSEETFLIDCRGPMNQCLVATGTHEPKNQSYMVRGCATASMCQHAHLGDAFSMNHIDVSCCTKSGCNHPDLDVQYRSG

Chain of uPAR·uPA protein–protein interaction (Q03405 23-305 limits assumed): as above

For O=C(O)c1cccc(Nc2cc(N3CCCCCC3)c3noc4c3c2C(=O)c2ccccc2-4)c1 [Compound 2], the “IC50 for inhibition of the uPAR·uPA complex (in words)” value [1] is given as “single-digit micromolar” and the “binding affinity to uPAR (in words)” value (uPAR) is given as “submicromolar”.
